Measured values reported in the supplement of paper PMC11061612.

Tests used:
Assay in all cases: combination Emax (second highest fraction inhibited in the dose matrix, 72 h); higher = more inhibition; extreme values may be limits of the assay
[1] = test system: SW756 (Cervical Carcinoma)
How it was run: (§1)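 Bliss excess equals the observed combination effect minus the expected value EA + EB − EA·EB, where EA and EB are the effects of each agent alone. Combination Emax is the second-highest inhibition within the matrix. Inhibition was scaled from CellTiter-Glo 2.0 luminescence, with 0 set by vehicle wells and 1 by blank wells, after 72 hours of two-drug dosing of cells plated in 1536-well plates.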

[2] = test system: MDA-MB-231 (Breast Carcinoma)
How it was run: as §1

[3] = test system: DOV13 (Ovarian Carcinoma)
How it was run: as §1

[4] = test system: IHH-4 (Thyroid Gland Carcinoma)
How it was run: as §1

[5] = test system: KARPAS-1106P (B-Cell Non-Hodgkin's Lymphoma)
How it was run: as §1

[6] = test system: CFPAC-1 (Pancreatic Carcinoma)
How it was run: as §1

[7] = test system: NCI-H1299 (Non-Small Cell Lung Carcinoma)
How it was run: as §1

[8] = test system: SW780 (Bladder Carcinoma)
How it was run: as §1

[9] = test system: KARPAS-620 (Plasma Cell Myeloma)
How it was run: as §1

[10] = test system: HPAC (Pancreatic Carcinoma)
How it was run: as §1

[11] = test system: HCC2157 (Breast Carcinoma)
How it was run: as §1

[12] = test system: KM-H2 (Hodgkin's Lymphoma)
How it was run: as §1

IGR-1 (Melanoma) = test system: IGR-1 (Melanoma)
How it was run: as §1

[13] = test system: SW1990 (Pancreatic Carcinoma)
How it was run: as §1

[14] = test system: MDA-MB-157 (Breast Carcinoma)
How it was run: as §1

CAL-78 (Chondrosarcoma) = test system: CAL-78 (Chondrosarcoma)
How it was run: as §1

DSH1 (Bladder Carcinoma) = test system: DSH1 (Bladder Carcinoma)
How it was run: as §1

[15] = test system: SNU-C5 (Colorectal Carcinoma)
How it was run: as §1

SN12C (Kidney Carcinoma) = test system: SN12C (Kidney Carcinoma)
How it was run: as §1

SK-N-FI (Neuroblastoma) = test system: SK-N-FI (Neuroblastoma)
How it was run: as §1

combination Emax [12]	Structure (SMILES)	combination Emax [1]	combination Emax [2]	combination Emax [3]	combination Emax [4]	combination Emax [5]	combination Emax [6]	combination Emax [7]	combination Emax [8]	combination Emax [9]	combination Emax [10]	combination Emax [11]	combination Emax (IGR-1 (Melanoma))	combination Emax [13]	combination Emax [14]	combination Emax (CAL-78 (Chondrosarcoma))	combination Emax (DSH1 (Bladder Carcinoma))	combination Emax [15]	combination Emax (SN12C (Kidney Carcinoma))	combination Emax (SK-N-FI (Neuroblastoma))
0.933	COc1cccc(OCCCN)c1-c1cc(Nc2cnc(C#N)cn2)n[nH]1 [Prexasertib] + CN(C)CCCOc1ccc(-c2ccc3ncc4c(c3c2)n(C2CCOCC2)c(=O)n4C)cn1 [AZD0156] (first compound max 1 µM, 7x7, partner max 1 µM)	0.379	0.743	0.927	0.901	0.919	0.618	0.747	0.136	0.896	0.795	0.976	0.466	0.705	0.935	0.525	0.82	0.889	0.342	0.908
0.92	COc1cccc(OCCCN)c1-c1cc(Nc2cnc(C#N)cn2)n[nH]1 [Prexasertib] + C[C@@H]1COCCN1C2=NC(=NC(=C2)C3(CC3)[S@](=N)(=O)C)C4=C5C=CNC5=NC=C4 [AZD6738] (first compound max 1 µM, 7x7, partner max 10 µM)	0.426	0.705	0.945	0.862	0.905	0.643	0.732	0.201	0.856	0.769	0.971	0.566	0.695	0.949	0.604	0.852	0.894	0.313	0.915
0.924	COc1cccc(OCCCN)c1-c1cc(Nc2cnc(C#N)cn2)n[nH]1 [Prexasertib] + Cc1cc2ncnn2cc1Nc1ncc2c(n1)n(C1CCOCC1)c(=O)n2C [AZD7648] (first compound max 1 µM, 7x7, partner max 10 µM)	0.489	0.696	0.914	0.947	0.909	0.692	0.711	0.26	0.817	0.816	0.958	0.508	0.703	0.961	0.586	0.768	0.886	0.387	0.915

Second part, the compound before the results:

Structure (SMILES)	combination Emax [12]	combination Emax [1]	combination Emax [2]	combination Emax [3]	combination Emax [4]	combination Emax [5]	combination Emax [6]	combination Emax [7]	combination Emax [8]	combination Emax [9]	combination Emax [10]	combination Emax [11]	combination Emax (IGR-1 (Melanoma))	combination Emax [13]	combination Emax [14]	combination Emax (CAL-78 (Chondrosarcoma))	combination Emax (DSH1 (Bladder Carcinoma))	combination Emax [15]	combination Emax (SN12C (Kidney Carcinoma))	combination Emax (SK-N-FI (Neuroblastoma))
COc1cccc(OCCCN)c1-c1cc(Nc2cnc(C#N)cn2)n[nH]1 [Prexasertib] + CCc1c2c(nc3ccc(O)cc13)-c1cc3c(c(=O)n1C2)COC(=O)[C@]3(O)CC [SN-38] (first compound max 1 µM, 7x7, partner max 0.3 µM)	0.944	0.802	0.978	0.959	0.965	0.897	0.841	0.79	0.969	0.889	0.887	1	0.893	0.741	0.989	0.906	0.924	0.928	0.76	0.886
COc1cccc(OCCCN)c1-c1cc(Nc2cnc(C#N)cn2)n[nH]1 [Prexasertib] + O=C(c1cc(Cc2n[nH]c(=O)c3ccccc23)ccc1F)N1CCN(C(=O)C2CC2)CC1 [Olaparib] (first compound max 1 µM, 7x7, partner max 10 µM)	0.877	0.456	0.639	0.962	0.789	0.897	0.671	0.694	0.23	0.802	0.593	0.967	0.566	0.696	0.938	0.565	0.688	0.776	0.387	0.889
COc1cc2c(cc1OCCCCCOc1cc3c(cc1OC)C(=O)N1C=C(C)C[C@H]1C=N3)N=C[C@@H]1CC(C)=CN1C2=O [SG3199] + O=C(c1cc(Cc2n[nH]c(=O)c3ccccc23)ccc1F)N1CCN(C(=O)C2CC2)CC1 [Olaparib] (first compound max 0.001 µM, 7x7, partner max 10 µM)	0.264	0.149	0.178	0.249	0.193	0.467	0.175	0.138	0.128	0.139	0.0597	0.264	0.187	0.125	0.0754	0.268	0.25	0.147	0.172	0.0819
